SMILES strings stand for the structures.

This assay has as its system ROK. Description: ROK activity assay. Type of assay: biochemical. The arrangement: key: +: active; ++: more active; +++: very active. As to conditions: assays conducted at 1-100 μM.

In the case of `OCc1ccc(-c2cncc(NCc3cccc(O)c3)c2)cc1` [3-{[5-(4-Hydroxymethyl-phenyl)-pyridin-3-ylamino]-methyl}-phenol], the ROK activity result is “+”.
As to `Oc1ccc(-c2cnc(NCc3ccccc3)cn2)cc1` [4-(5-Benzylamino-pyrazin-2-yl)-phenol], the ROK activity result was “++”.
Consider `Nc1ccc(C(=O)Nc2ccc(Nc3cnc(-c4ccncc4Cl)cn3)cc2)cc1` [4-Amino-N-{4-[5-(3-chloro-pyridin-4-yl)-pyrazin-2-ylamino]-phenyl}-benzamide], for which the ROK activity result was “++”.
Under `CC(Nc1cnc(-c2ccc(O)cc2)cn1)c1ccccc1` (stereo not drawn) [4-[5-(1-Phenyl-ethylamino)-pyrazin-2-yl]-phenol] stands “++”; under `Oc1ccc(-c2cnc(NCCc3ccncc3)cn2)cc1` [4-[5-(2-Pyridin-4-yl-ethylamino)-pyrazin-2-yl]-phenol], “+”.
The entry for `Oc1ccc(-c2cncc(NCc3ccc(Cl)c(Cl)c3)c2)cc1` [4-[5-(3,4-Dichloro-benzylamino)-pyridin-3-yl]-phenol] is “+”; for `Oc1ccc(-c2cncc(NCc3ccc(F)c(F)c3)c2)cc1` [4-[5-(3,4-Difluoro-benzylamino)-pyridin-3-yl]-phenol] it is “++”.
For the compound `COc1ccc(CNc2cncc(-c3ccc(O)cc3)c2)cc1OC` [4-[5-(3,4-Dimethoxy-benzylamino)-pyridin-3-yl]-phenol], the ROK activity entry was “+”.
`Oc1ccc(-c2cnc(NCc3cccc(Cl)c3)cn2)cc1` [4-[5-(3-Chloro-benzylamino)-pyrazin-2-yl]-phenol]: the ROK activity result is reported as “+”.
As to `Oc1ccc(-c2cncc(NCc3cccc(Cl)c3)c2)cc1` [4-[5-(3-Chloro-benzylamino)-pyridin-3-yl]-phenol], the ROK activity entry was “++”.
`NC(=O)c1ccc(-c2cncc(NCc3cccc(O)c3)c2)cc1` [4-[5-(3-Hydroxy-benzylamino)-pyridin-3-yl]-benzamide]: the ROK activity entry was “+++”.
With `Oc1ccc(-c2cncc(Nc3cccc(O)c3)c2)cc1` [4-[5-(3-Hydroxy-phenylamino)-pyridin-3-yl]-phenol], the ROK activity result is given as “++”.
The entry for `Oc1ccc(-c2cncc(NCc3cccc(OC(F)(F)F)c3)c2)cc1` [4-[5-(3-Trifluoromethoxy-benzylamino)-pyridin-3-yl]-phenol] is “+”; for `Oc1ccc(-c2cncc(NCc3ccc(Cl)cc3)c2)cc1` [4-[5-(4-Chloro-benzylamino)-pyridin-3-yl]-phenol] it is “++”; for `COc1ccc(CNc2cncc(-c3ccc(O)cc3)c2)cc1` [4-[5-(4-Methoxy-benzylamino)-pyridin-3-yl]-phenol] it is “++”.
In the case of `Oc1ccc(-c2cncc(NCC3CCCCC3)c2)cc1` [4-[5-(Cyclohexylmethyl-amino)-pyridin-3-yl]-phenol], the ROK activity entry is reported as “+”.
Consider `NS(=O)(=O)c1ccc(CNc2cnc(-c3ccncc3)cn2)cc1` [4-[(5-Pyridin-4-yl-pyrazin-2-ylamino)-methyl]-benzenesulfonamide], for which the ROK activity entry is listed as “++”.
Turning to `CN(Cc1cccc(O)c1)c1cncc(-c2ccc(O)cc2)c1` [4-{5-[(3-hydroxy-benzyl)-methyl-amino]-pyridin-3-yl}-phenol], the ROK activity entry was “+”.
With `Oc1ccc(-c2cncc(NCc3ccc4c(c3)OCO4)c2)cc1` [4-{5-[(Benzo[1,3]dioxol-5-ylmethyl)-amino]-pyridin-3-yl}-phenol], the ROK activity result is given as “++”.
The entry for `Oc1ccc(-c2cncc(NCc3ccoc3)c2)cc1` [4-{5-[(Furan-3-ylmethyl)-amino]-pyridin-3-yl}-phenol] is “++”; for `Oc1ccc(-c2cncc(NCc3ccc4ccccc4c3)c2)cc1` [4-{5-[(Naphthalen-2-ylmethyl)-amino]-pyridin-3-yl}-phenol] it is “+”; for `Oc1ccc(-c2cncc(NCC3CCCN3)c2)cc1` (stereo not drawn) [4-{5-[(Pyrrolidin-2-ylmethyl)-amino]-pyridin-3-yl}-phenol] it is “++”.
For `COc1ccc(CNc2cncc(-c3ccc(O)cc3)c2)cc1O` [5-{[5-(4-Hydroxy-phenyl)-pyridin-3-ylamino]-methyl}-2-methoxy-phenol], the ROK activity result is recorded as “++”.
Under `Oc1ccc(-c2cncc(NCc3cc(O)cc(O)c3)c2)cc1` [5-{[5-(4-Hydroxy-phenyl)-pyridin-3-ylamino]-methyl}-benzene-1,3-diol] stands “++”; under `c1ccc2ncc(-c3cnc(NCCc4ccncc4)cn3)cc2c1` [(2-Pyridin-4-yl-ethyl)-(5-quinolin-3-yl-pyrazin-2-yl)-amine], “++”; under `COc1cc(-c2cnc(NCCc3ccncc3)cn2)cc(OC)c1OC` [(2-Pyridin-4-yl-ethyl)-[5-(3,4,5-trimethoxy-phenyl)-pyrazin-2-yl]-amine], “++”.
Turning to `FC(F)(F)Oc1cccc(-c2cnc(NCCc3ccncc3)cn2)c1` [(2-Pyridin-4-yl-ethyl)-[5-(3-trifluoromethoxy-phenyl)-pyrazin-2-yl]-amine], the ROK activity result is “++”.
`FC(F)(F)Oc1ccc(-c2cnc(NCCc3ccncc3)cn2)cc1` [(2-Pyridin-4-yl-ethyl)-[5-(4-trifluoromethoxy-phenyl)-pyrazin-2-yl]-amine]: the ROK activity entry was “++”.
`Clc1cccc(CNc2cnc(-c3ccncc3)cn2)c1` [(3-Chloro-benzyl)-(5-pyridin-4-yl-pyrazin-2-yl)-amine]: the ROK activity entry is “++”.
Take `COc1ccc(CNc2cnc(-c3ccncc3)cn2)cc1` [(4-Methoxy-benzyl)-(5-pyridin-4-yl-pyrazin-2-yl)-amine]: the ROK activity result is recorded as “+”.
As to `Oc1cccc(CNc2cncc(-c3cccc(O)c3)c2)c1` [(5-(3′-hydroxy-phenyl)-pyridin-3-yl)-(3-hydroxy-benzyl)-amine], the ROK activity result is recorded as “+”.
On to `Oc1ccc(-c2cncc(NCc3cccc(O)c3)c2)cc1` [(5-(4′-hydroxy-phenyl)-pyridin-3-yl)-(3-hydroxy-benzyl)-amine], for which the ROK activity result was “+++”.
Consider `c1cc(CCNc2cnc(-c3ccc4c(c3)OCO4)cn2)ccn1` [(5-Benzo[1,3]dioxol-5-yl-pyrazin-2-yl)-(2-pyridin-4-yl-ethyl)-amine], for which the ROK activity entry is on record as “++”.
Under `c1ccc2sc(-c3cnc(NCCc4ccncc4)cn3)cc2c1` [(5-Benzo[b]thiophen-2-yl-pyrazin-2-yl)-(2-pyridin-4-yl-ethyl)-amine] stands “++”; under `c1ccc2oc(-c3cnc(NCCc4ccncc4)cn3)cc2c1` [(5-Benzofuran-2-yl-pyrazin-2-yl)-(2-pyridin-4-yl-ethyl)-amine], “++”; under `c1cncc(CCNc2cnc(-c3ccc4ccccc4c3)cn2)c1` [(5-Naphthalen-2-yl-pyrazin-2-yl)-(2-pyridin-3-yl-ethyl)-amine], “+”.
In the case of `c1ccc2cc(-c3cnc(NCCc4ccncc4)cn3)ccc2c1` [(5-Naphthalen-2-yl-pyrazin-2-yl)-(2-pyridin-4-yl-ethyl)-amine], the ROK activity entry is given as “++”.
Take `c1csc(CNc2cnc(-c3ccncc3)cn2)c1` [(5-Pyridin-4-yl-pyrazin-2-yl)-thiophen-2-ylmethyl-amine]: the ROK activity entry is recorded as “++”.
In the case of `c1cc(-c2cnc(NCc3ccc4c(c3)OCO4)cn2)ccn1` [Benzo[1,3]dioxol-5-ylmethyl-(5-pyridin-4-yl-pyrazin-2-yl)-amine], the ROK activity result was “++”.
For `c1cc(-c2cncc(NCc3ccc4c(c3)OCO4)c2)ccn1` [Benzo[1,3]dioxol-5-ylmethyl-[3,4′]bipyridinyl-5-yl-amine], the ROK activity entry is “++”.
Take `CN(C)CCNC(=O)c1cccc(-c2cncc(Nc3ccc4ccccc4c3)c2)c1` [N-(2-Dimethylamino-ethyl)-3-[5-(naphthalen-2-ylamino)-pyridin-3-yl]-benzamide]: the ROK activity result is “+”.
`O=C(NCCO)c1cccc(-c2cnc(NCCc3ccncc3)cn2)c1` [N-(2-Hydroxy-ethyl)-3-[5-(2-pyridin-4-yl-ethylamino)-pyrazin-2-yl]-benzamide]: the ROK activity result is listed as “+”.
Under `COc1ccc(NC(=O)c2ccc(-c3cnc(NCCc4ccncc4)cn3)cc2)cc1` [N-(4-Methoxy-phenyl)-4-[5-(2-pyridin-4-yl-ethylamino)-pyrazin-2-yl]-benzamide] stands “++”.
Take `CC(=O)Nc1cccc(-c2cncc(NCc3cccc(O)c3)c2)c1` [N-{3-[5-(3-Hydroxy-benzylamino)-pyridin-3-yl]-phenyl}-acetamide]: the ROK activity entry is listed as “+”.
The entry for `CC(=O)Nc1ccc(-c2cncc(NCc3cccc(O)c3)c2)cc1` [N-{4-[5-(3-Hydroxy-benzylamino)-pyridin-3-yl]-phenyl}-acetamide] is “+”; for `Clc1ccc(CNc2cncc(-c3ccncc3)c2)cc1Cl` [[3,4′]Bipyridinyl-5-yl-(3,4-dichloro-benzyl)-amine] it is “++”.
In the case of `Fc1ccc(CNc2cncc(-c3ccncc3)c2)cc1F` [[3,4′]Bipyridinyl-5-yl-(3,4-difluoro-benzyl)-amine], the ROK activity result is “++”.
As for `Brc1cccc(Nc2cncc(-c3ccncc3)c2)c1` [[3,4′]Bipyridinyl-5-yl-(3-bromo-phenyl)-amine], the ROK activity entry is on record as “++”.
For `Clc1cccc(CNc2cncc(-c3ccncc3)c2)c1` [[3,4′]Bipyridinyl-5-yl-(3-chloro-benzyl)-amine], the ROK activity entry is “++”.
Turning to `Clc1cccc(Nc2cncc(-c3ccncc3)c2)c1` [[3,4′]Bipyridinyl-5-yl-(3-chloro-phenyl)-amine], the ROK activity entry was “++”.
For the compound `O=[N+]([O-])c1cccc(Nc2cncc(-c3ccncc3)c2)c1` [[3,4′]Bipyridinyl-5-yl-(3-nitro-phenyl)-amine], the ROK activity entry is recorded as “++”.
Take `FC(F)(F)Oc1cccc(CNc2cncc(-c3ccncc3)c2)c1` [[3,4′]Bipyridinyl-5-yl-(3-trifluoromethoxy-benzyl)-amine]: the ROK activity entry was “++”.
Under `Brc1ccc(CNc2cncc(-c3ccncc3)c2)cc1` [[3,4′]Bipyridinyl-5-yl-(4-bromo-benzyl)-amine] stands “+++”; under `Fc1cc(CNc2cncc(-c3ccncc3)c2)ccc1Cl` [[3,4′]Bipyridinyl-5-yl-(4-chloro-3-fluoro-benzyl)-amine], “+++”.

Values taken from patent publication US20090163515A1, “Compounds Which Bind to the Active Site of Protein Kinase Enzymes” (Biofocus Discovery Ltd., priority 2003, published 2009).
